{"source": "patent US10844091B2", "about": "(priority 2017, dated 2020)", "key": {"[1]": {"test_system": "intact animals and animals with reserpine-induced depression", "assay": "Open Field Test, intact animals and animals with reserpine-induced depression", "type": "in vivo, rat", "conditions": "for Emotional reactions and concomitant vegetative state (total number of grooming acts, fecal boluses, and urinations) / Orientation and exploratory activity (number of explored openings and upright positions) / Sum of all results / Locomotor activity (number of squares): imipramine 15 mg/kg i.p., tetrapeptide (LYS) 0.02 mg/kg i.n.", "experimental": "(§1) The experiment was conducted on 16 white random-bred adult male rats weighing:\n(§2) 180-220 g. The antidepressant activity of tetrapeptide (LYS), a neuroprotector, at a 0.02 mg/kg dose intranasally (i.n.) was evaluated. […] The experiment was conducted in two stages. […] 25-30 min. prior to the start of the experiment, the animals were administered their respective drugs. The animals in the control group were administered 0.9% NaCl solution i.p. and i.n. in the volume equal to the volume of the medications. After that, the animals of all groups were placed in the open field (OF) for 3 min., and their locomotor (number of crossed squares), orientation, and exploratory (number of upright positions and explored openings) activity as well as their emotional reactions (fecal boluses, urination, grooming) were evaluated. The indicators of depression in the animals (latent immobilization period, the number of such instances, and their total duration) were evaluated in the Popsolt swim test (PST) over 6 min. In the next 2 days, all the medications were administered at the same dose once a day; the last administration—30 min before the depressogenic sympatholytics of reserpine. Reserpine was administered on the 3rd day (2nd stage of the experiment) at a 4 mg/kg dose i.p. (as a suspension stabilized with Tween-80). Animals in all 3 groups were evaluated 6-7 hr. later in the OF and PST.\n(§3) Test results were statistically processed. When the data distribution was normal, the parametric Student's t-distribution test was applied, when it was absent, the non-parametric MannWhitney U-test was used. When processing the results in an alternative form (presence/absence of the indicator), Fisher's angular transformation φ was applied. Wilcoxon paired t-criterium test was used for the intra-group statistical evaluation of the changed in the animal test results prior and post simulated depression. The results were considered to be statistically significant when p<0.05."}, "superoxide dismutase": {"test_system": "superoxide dismutase", "assay": "Superoxide dismutase activity in the brain of rat models with Alzheimer's disease", "type": "in vivo", "conditions": "tetrapeptide 0.1 mg/kg", "experimental": "(§4) The drugs were administered daily, once a day.\n(§5) Standard biochemical methods were used to determine the content and activity of antioxidant defense enzymes and products of lipid peroxidation: malonic dialdehyde (MDA) [Modern Biochemistry Methods/[edited by V. N. Orekhovich]; M. Medicine, 1977, 392 pp]; superoxide dismutase (SOD) [O. P. Makarevich Activity of superoxide dismutase in blood in the acute period of various diseases/O. P. Makarevich, P. P. Golikov//Lab. Science, 1983, No 6, pp 24-27]; catalase [Methods for the Determination of Catalase Activity/M. A. Korolyuk, L. I. Ivanova, I. G. Mayorova, et al//Lab. Science, 1988, No 1, pp 16-19]; and reduced glutathione [T. A. Kochetov A Practical Guide to Enzymology. M. Nauka, 1980, 280 pp]."}, "[2]": {"test_system": "rat models with Alzheimer's disease", "assay": "Conditioned passive avoidance reflex (CPAR) test, scopolamine-induced Alzheimer's disease model", "type": "in vivo", "conditions": "for antiamnesic action (AA) in the CPAR test: Butler's formula, 0.1 mg/kg; for number of animals who reached the CPAR learning criterium: % of total trained animals, criterium at least 180 sec in light area", "experimental": "White random-bred adult male rats weighing 200-240 g were used. Groups of 7 animals per group were formed. 1st group—control, 2nd—pathology, 3rd—comparator drug, 4th-6th—neuropeptides.\nScopolamine was administered i.p. to the animals in all groups except for the control at a 1 mg/kg dose daily, once a day for 27 days. From the 28th day on, the animals in groups 2 and 3 were administered the comparator drug and the claimed preparation respectively over the course of 10 days. The drugs were administered daily, once a day.\nThe tetrapeptides were administered i.n at a 0.1 mg/kg dose. The animals in the pathology group received 0.9% sodium chloride solution i.n. and i.p. as a placebo.\nThe OF and EE tests were conducted on the 1st day, PST—on the 2nd day, CPAR—on the 1st and 10th day post treatment with the preparations. […] The antiamnesic action (AA) in the CPAR test was calculated using Butler's formula [K. S. Radionova. […] After that, the animals were removed from the experiment by administering a narcotic, followed by decapitation. The brain was extracted and weighed, and the brain weight coefficient (BWC) was calculated. Immediately after extraction, the brain was frozen in liquid nitrogen and used in subsequent biochemical and histochemical studies. Glucose levels in whole arterial (common carotid artery) and venous (venous cerebral sinus) blood were determined by the glucose oxidase test, the difference in the arterial-venous glucose content was calculated (glucose consumption marker). The levels of average weight molecules—the toxic products of cell biodegradation damaged during the disease (nucleoside derivatives, peptoids, glucuronic acid salts, etc.) in the blood serum (AWM) were calculated [A. N. Kovalevsky. Notes on the screening method of determination average weight molecules/A. N. Kovalevsky, O. Ye. Nifantiev//Lab. Science. […] 35-39]."}, "[3]": {"test_system": "intact rats and animals with reserpine-induced depression", "assay": "Popsolt swim test, intact rats and animals with reserpine-induced depression", "type": "in vivo, rat", "conditions": "for Number of immobilization episodes / Total duration of immobilization / Latent immobilization period: imipramine 15 mg/kg i.p., tetrapeptide (LYS) 0.02 mg/kg i.n.", "experimental": "as §1, §2, §3"}, "catalase": {"test_system": "catalase", "assay": "Catalase activity in the brain of rat models with Alzheimer's disease", "type": "in vivo", "conditions": "tetrapeptide 0.1 mg/kg; statistically significant", "experimental": "as §4, §5"}, "[4]": {"conditions": "R - reserpine-induced depression"}, "[5]": {"conditions": "reserpine-induced depression, p<0.05"}}, "note": "Marks after values point to notes of the source that are not given here. Non-standard residues stand in square brackets, D forms with d."}
{"substance": "acetyl-D-Lys-Lys-Arg-Arg-amide (Ac-[dK]KRR-NH2; SMILES CC(=O)N[C@H](CCCCN)C(=O)N[C@@H](CCCCN)C(=O)N[C@@H](CCCNC(=N)N)C(=O)N[C@@H](CCCNC(=N)N)C(N)=O) [tetrapeptide (LYS), peptide acetyl-X-ARG-ARG-amide, X = D- and L-amino acid residues of lysine]", "values": [{"measurement": "Emotional reactions and concomitant vegetative state (total number of grooming acts, fecal boluses, and urinations)", "setting": "[1]; I - intact animals", "result": "1.8 ± 0.77^"}, {"measurement": "Orientation and exploratory activity (number of explored openings and upright positions)", "setting": "[1]; I - intact animals", "result": "5.8 ± 0.77"}, {"measurement": "Sum of all results", "setting": "[1]; I - intact animals", "result": "11.6 ± 2.49*^"}, {"measurement": "Locomotor activity (number of squares)", "setting": "[1]; I - intact animals, 3 min", "result": "4.0 ± 1.34*^"}, {"measurement": "Locomotor activity (number of squares)", "setting": "[1]; R - reserpine-induced depression (4 mg/kg i.p.)", "result": "3.4 ± 2.4"}, {"measurement": "Emotional reactions and concomitant vegetative state (total number of grooming acts, fecal boluses, and urinations)", "setting": "[1]; [4]", "result": "0.2 ± 0.2"}, {"measurement": "Orientation and exploratory activity (number of explored openings and upright positions)", "setting": "[1]; [4]", "result": "4.6 ± 2.4"}, {"measurement": "Sum of all results", "setting": "[1]; [4]", "result": "8.2 ± 4.98"}, {"measurement": "Emotional reactions and concomitant vegetative state, % change reserpine-induced depression vs. intact animals", "setting": "[1]; R vs I", "result": "(−88.9%) ®"}, {"measurement": "Locomotor activity, % change reserpine-induced depression vs. intact animals", "setting": "[1]; R vs I", "result": "(−15.0%)"}, {"measurement": "Orientation and exploratory activity, % change reserpine-induced depression vs. intact animals", "setting": "[1]; R vs I", "result": "(−20.69%)"}, {"measurement": "Sum of all results, % change reserpine-induced depression vs. intact animals", "setting": "[1]; R vs I", "result": "(−29.3%)"}, {"measurement": "decrease of emotional reaction level compared to intact animals", "setting": "[1]; reserpine-induced depression", "result": 9, "unit": "times"}, {"measurement": "reduction of locomotor activity (crossed squares) compared to intact animals", "setting": "[1]; reserpine-induced depression", "result": 15, "unit": "%"}, {"measurement": "reduction of orientation and exploratory activity compared to intact animals", "setting": "[1]; reserpine-induced depression", "result": 20.7, "unit": "%"}, {"measurement": "reduction of the sum of all types of activities compared to intact animals", "setting": "[1]; reserpine-induced depression", "result": 29.3, "unit": "%"}, {"measurement": "increase of SOD activity compared to the pathology group", "setting": "superoxide dismutase", "result": 22, "unit": "%"}, {"measurement": "antiamnesic action (AA) in the CPAR test", "setting": "[2]; 10th day", "result": 81.5, "unit": "%"}, {"measurement": "increase of latent period compared to the pathology group", "setting": "[2]; 24 hrs. post formation of CPAR", "result": 79.5, "unit": "%"}, {"measurement": "Latent period of entry into the dark area of the CPAR device, In 24 hrs.", "setting": "[2]; In 24 hrs., scopolamine + donepezil 1 mg/kg or tetrapeptide (LYS) 0.1 mg/kg i.n.", "result": "126.14 ± 23.62", "unit": "s"}, {"measurement": "Latent period of entry into the dark area of the CPAR device, In 10 days", "setting": "[2]; In 10 days, scopolamine + donepezil 1 mg/kg or tetrapeptide (LYS) 0.1 mg/kg i.n.", "result": "89.71 ± 19.09^ sec."}, {"measurement": "Latent period of entry into the dark area of the CPAR device, Initial", "setting": "[2]; Initial, scopolamine + donepezil 1 mg/kg or tetrapeptide (LYS) 0.1 mg/kg i.n.", "result": "20.14 ± 3.73", "unit": "s"}, {"measurement": "number of animals who reached the CPAR learning criterium", "setting": "[2]; first day", "result": 42.9, "unit": "%"}, {"measurement": "antiamnesic action (AA) in the CPAR test", "setting": "[2]; first day", "result": 56.5, "unit": "%"}, {"measurement": "increase of latent period compared to the pathology group", "setting": "[2]; post 10 days, p<0.05", "result": 130.9, "unit": "%"}, {"measurement": "number of animals who reached the CPAR learning criterium", "setting": "[2]; tenth day", "result": 14.3, "unit": "%"}, {"measurement": "Number of immobilization episodes", "setting": "[3]; I - intact animals", "result": "1.2 ± 0.6"}, {"measurement": "Total duration of immobilization", "setting": "[3]; I - intact animals", "result": "4.0 ± 2.7", "unit": "s"}, {"measurement": "Latent immobilization period", "setting": "[3]; I - intact animals, 6 min", "result": "214.6 ± 66.7", "unit": "s"}, {"measurement": "Latent immobilization period", "setting": "[3]; [4]", "result": "170.8 ± 34.1", "unit": "s"}, {"measurement": "Number of immobilization episodes", "setting": "[3]; [4]", "result": "3.0 ± 0.38"}, {"measurement": "Total duration of immobilization", "setting": "[3]; [4]", "result": "7.8 ± 2.3", "unit": "s"}, {"measurement": "Latent immobilization period, % change reserpine-induced depression vs. intact animals", "setting": "[3]; R vs I", "result": "(−20.4)^ %"}, {"measurement": "Number of immobilization episodes, % change reserpine-induced depression vs. intact animals", "setting": "[3]; R vs I", "result": "(+150.0%)"}, {"measurement": "Total duration of immobilization, % change reserpine-induced depression vs. intact animals", "setting": "[3]; R vs I", "result": "(+95.0%)"}, {"measurement": "increase of the latent immobilization period compared to the control", "setting": "[3]; intact animals, p<0.05", "result": 3.5, "unit": "times"}, {"measurement": "reduction of the number of immobilization periods compared to the control", "setting": "[3]; intact animals, p<0.05", "result": 11.5, "unit": "times"}, {"measurement": "reduction of total duration of immobilization compared to the control", "setting": "[3]; intact animals, p<0.05", "result": 16.1, "unit": "times"}, {"measurement": "increase of the latent immobilization period compared to the control", "setting": "[3]; [5]", "result": 4.5, "unit": "times"}, {"measurement": "reduction of the number of immobilization episodes compared to the control", "setting": "[3]; [5]", "result": 2.6, "unit": "times"}, {"measurement": "reduction of total duration of immobilization compared to the control", "setting": "[3]; [5]", "result": 3.6, "unit": "times"}, {"measurement": "reduction of the elevated activity of catalase", "setting": "catalase", "result": 1.1, "unit": "times"}]}
